Results on eleven compounds are retold here after PubChem BioAssay (NCI).

Experiment in all cases: NCI tumour cell line growth inhibition, 48 h
For assay [1], the system named is 786-0 renal.
The subject of assay [2] is A549 NSCLC.
Assay [3] concerns MALME-3M melanoma.
Assay [4] has as its system NCI-H226 lung.
Assay [5] concerns NCI-H23 lung.
The subject of assay [6] is NCI-H460 lung.
Assay [7] deals with OVCAR-3 ovarian.
In assay [8] the test system is OVCAR-5 ovarian.
For assay [9], the system named is RXF 393 renal.
Assay [10] has as its system SF-268 CNS.

Molecules are shown by their SMILES.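 Where inhibition never reached the appropriate level, the endpoint shown equals the highest concentration tested. Otherwise, values were interpolated linearly from a five-concentration, 48-hour dose response in 96-well plates. The concentration for 50% growth inhibition is given as GI50. TGI: concentration producing complete growth inhibition.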

On to `Cc1ccc(Nc2nc3c(s2)C(=O)c2ccccc2C3=O)c(C)c1`, for which the TGI in assay [1] worked out at 32.5 µM; in assay [2] it was 37.6 µM; in assay [3], 26.9 µM; in [4], 17.6 µM; in assay [5] it was 25.6 µM; in assay [6], 54.2 µM. Further, the TGI in assay [7] is 27.5 µM; in assay [8], 34.8 µM; in assay [9], 29.6 µM; in assay [10] it was 24.1 µM.
As to `O=C(N/N=C/c1cccc(O)c1O)c1ccccc1`, the GI50 in assay [1] is 1.48 µM; in [2], 2.01 µM; in [3], 1.35 µM; in assay [4], 3.22 µM; in [5], 0.992 µM; in assay [6], 0.878 µM. Besides, the GI50 in assay [7] is 0.369 µM; in assay [8], 3.71 µM; in assay [9], 1.98 µM; in [10], 0.567 µM. For the same compound, the TGI in assay [1] is more than 100 µM; in assay [2] it was more than 100 µM; in assay [3] it was 35.8 µM; in assay [4], more than 30.2 µM; in [5], more than 100 µM; in assay [6], more than 100 µM. For the same compound, the TGI in assay [7], in [8], in assay [9] and in [10] was more than 100 µM in each case.
`NCCCC[C@@H]1NC(=O)[C@H]2CCCN2C(=O)[C@H](Cc2ccccc2)NC(=O)[C@H](Cc2ccccc2)CNC1=O`: the GI50 in [1], in [2], in assay [3], in assay [4], in assay [5] and in assay [6] was more than 100 µM each time. The GI50 in [7], in assay [8], in assay [9] and in [10] was more than 100 µM throughout. Also, the TGI in assay [1], in [2], in [3], in assay [4], in assay [5] and in assay [6] was more than 100 µM throughout. Besides, the TGI in assay [7], in assay [8], in [9] and in [10] was more than 100 µM each time.
For the compound `COC(=O)c1cccc2cccc(C(=O)Nc3ccc(C)cc3C)c12`, the TGI in [1], in assay [2], in [3], in [4], in assay [5] and in [6] was more than 100 µM each time. For the same compound, the TGI in [7], in assay [8], in [9] and in [10] was more than 100 µM each time.
For `Cn1cc(C(=O)c2ccccc2)ccc1=O`, the TGI in assay [1], in assay [2], in assay [3], in [4], in assay [5] and in assay [6] was more than 100 µM throughout. The TGI in assay [7], in [8], in assay [9] and in assay [10] was more than 100 µM throughout.
For `COc1ccc2c(c1)CCC1C3(CCCC21C)OCCO3` (stereo not given), the TGI in assay [1] amounted to 38.1 µM; in [2] it was 69.7 µM; in assay [3] it was 58.8 µM; in assay [4], 35.7 µM; in assay [5], 34.2 µM; in assay [6], 46.3 µM. In addition, the TGI in assay [7] is 35.5 µM; in assay [8], more than 100 µM; in assay [9], 31.1 µM; in assay [10] it was 19.9 µM.
As to `CC1CN1CC(O)C(O)CN1CC1C` (stereo not given), the GI50 in assay [1] was 0.831 µM; in assay [2], 2.08 µM; in assay [3], 2.13 µM; in assay [4] it was 5.23 µM; in assay [5] it was 2.37 µM; in [6] it was 0.319 µM. The GI50 in assay [7] was 2.52 µM; in [8] it was 13.4 µM; in assay [9], 2.04 µM; in assay [10] it was 0.716 µM. Moreover, the TGI was more than 41.2 µM in [1]; 33 µM in assay [2]; 13.7 µM in assay [3]; 50.1 µM in [4]; more than 75.4 µM in [5]; 13 µM in assay [6]. The TGI in assay [7] was 10.7 µM; in [8] it was more than 85.1 µM; in assay [9], 8.77 µM; in assay [10] it was more than 53.5 µM.
Turning to `CC(C)N(C(=O)C12CC3CC(CC(C3)C1)C2)C(C)C`, the TGI in assay [1], in assay [2], in assay [3], in assay [4], in [5] and in assay [6] was more than 50 µM each time. In addition, the TGI in [7], in assay [8], in assay [9] and in assay [10] was more than 50 µM throughout.
Turning to `Cc1ccc(N(C(=O)CC(=O)NN)C(=O)c2ccccc2Cl)cc1`, the TGI in [1], in assay [2], in [3], in assay [4], in [5] and in assay [6] was more than 100 µM throughout. The TGI in assay [7], in [8], in [9] and in [10] was more than 100 µM in each case.
Turning to `COc1ccc2c(c1)C=C([N+](=O)[O-])C(C1OC(C)(C)OC1C1COC(C)(C)O1)O2` (stereo not given), the TGI is 26.5 µM in [1]; 41.9 µM in assay [2]; 6.15 µM in [3]; 21.6 µM in [4]; 24.2 µM in assay [5]; 13.6 µM in assay [6]. Moreover, the TGI was 21.8 µM in assay [7], 20.7 µM in assay [8], 8.7 µM in assay [9] and 13.5 µM in assay [10].
On to `Cc1cccc(NC(=O)C(=O)Cc2nc3ccccc3[nH]c2=O)c1C`, for which the TGI in [1], in assay [2], in assay [3], in [4], in [5] and in [6] was more than 100 µM each time. Also, the TGI in assay [7], in [8], in assay [9] and in assay [10] was more than 100 µM throughout.
